{
  "source": "patent US10653659B2",
  "about": "“Compositions comprising a compound from the family of avermectins and an agonist compound for at least one of the retinoic acid receptors for treating acne” (GALDERMA SA, priority 2014, dated 2020)",
  "note": "“And” between values parts separate entries of the source, which are not always exact repeats. Equal entries are not always repeated.",
  "data": [
    {"tested_on": "patients with acne", "test": "Comparative clinical study among patients with acne", "format": "in vivo, human", "conditions": "Treatment A (first treatment, retinoids without ivermectin); scale from 0 to 5; one acne patient per line; duration varies per patient", "procedure": "A comparative study was carried out among patients with acne. […] These same patients then received a second treatment (Treatment B) containing ivermectin and were followed over several months.\nBy way of example, mention may be made of: Differin 0.3%®, Epiduo®, Metrogel® and Epiduo Forte® marketed by Galderma Laboratories, Accutane® from Roche Laboratories, and Ziana® from Medicis Pharmaceutical Corp.", "values": [
      {"molecule": "COc1ccc(-c2ccc3cc(C(=O)O)ccc3c2)cc1C12CC3CC(CC(C3)C1)C2", "note": "[adapalene 0.3%, 6-[3-(1-adamantyl)-4-methoxyphenyl]-2-naphthoic acid]", "Satisfaction score": "1 and 0"},
      {"molecule": "CC1=C(/C=C/C(C)=C/C=C/C(C)=C/CO)C(C)(C)CCC1", "note": "[retinol 0.05%, retinol]", "Satisfaction score": 0},
      {"molecule": "CC1=C(/C=C/C(C)=C/C=C/C(C)=C/C(=O)O)C(C)(C)CCC1", "note": "[tretinoin 0.05%, tretinoin]", "Satisfaction score": 0}
    ]}
  ]
}
